The assay can be described thus: Inhibition of GST-tagged recombinant human cytomegalovirus DNA polymerase catalytic subunit UL54 expressed in baculovirus infected insect Sf21 cells assessed as incorporation of biotin-tagged dUTP after 30 mins by LANCE TR-FRET assay. Details: species or system Human betaherpesvirus 5.

This note sets out measurements from ChEMBL document CHEMBL3098123, “New inhibitors of cytomegalovirus DNA polymerase” (ACS Med Chem Lett, 2013).

A word on the IC50: it is the concentration at which inhibition is half-maximal.

Turning to `CN(CC(=O)O)c1ccnc2c1cc(C(=O)NCc1ccc(Cl)cc1)c(=O)n2CC(=O)N1CC(C)(C)C1`, the IC50 came to 50 nM.

Turning to `CC1(C)CN(C(=O)Cn2c(=O)c(C(=O)NCc3ccc(Cl)cc3)cc3cc(-c4nn[nH]n4)cnc32)C1`, the IC50 was 30 nM.

As for `COc1cc(N)nc2c1cc(C(=O)NCc1ccc(Cl)cc1)c(=O)n2CC(=O)N(C)CC1(CO)COC1`, the IC50 came to 22 nM.
